Measurements from patent US5047244A, “Mucoadhesive carrier for delivery of therapeutical agent” (priority 1988, dated 1991).
Converted amounts (≈) assume the structure as drawn.

Tests used:
Assay type in all cases: physicochemical
[1] = In vitro therapeutic agent release (USP Dissolution Test Method II, 0.05M isotonic phosphate buffer pH 6.0 with 30 weight percent PEG 400); details: for In vitro release of 17 β-estradiol: Example 17 carrier (Table XIX, mannitol); for Therapeutic Agent Release Parameter, T, 20% / Therapeutic Agent Release Parameter, T, 50% / Therapeutic Agent Release Parameter, T, 75% / Therapeutic Agent Release Parameter, T, 90%: Example 7 carrier (Table VII), 20 mg agent, agent:PEG 8000 1:2; for In vitro release of dehydroepiandrosterone: Example 12 carrier, 5 mg DHEA
Procedure: Therapeutic agent release studies were conducted using an Erweka dissolution test assembly in compliance with Dissolution Test Method II as described in The United States Pharmacopeia, 24th revision (USP XXIV). Five hundred milliliters of a 0.1M phosphate buffer dissolution fluid was maintained at about 37° C. (about 100° F.) and the […] was rotated at 50 revolutions per minute (rpm). At predetermined time points, samples of approximately 3 milliliters of the test medium were withdrawn from the flasks and immediately replaced with an equivalent volume of blank buffer. Analysis of the samples was performed by ultraviolet spectrophotometry. […] The time to achieve 20%, 50% and 80% by weight dissolution of the piroxicam was estimated from a linear plot of percent dissolved versus time.
Therapeutic agent release testing was conducted by the USP Dissolution Test Method II. The dissolution medium chosen was 500 ml of a 0.05M isotonic phosphate buffer having a 6.0 pH with 30 weight percent PEG 400.
An equivalent of 20 mg of albuterol in a mucosal composition of a albuterol:PEG 8000 weight in a ratio of 1:2 was included in each carrier. […] Plots of weight percent therapeutic agent released versus time were constructed and the drug release parameter T (in hours) for a given weight and percent drug released was calculated from the plots.

[2] = as above; details: for In vitro release of 17 β-estradiol: Example 17 carrier (Table XIX, mannitol); for In vitro release of therapeutic agent: 20 mg piroxicam
[3] = Saturation solubility in phosphate buffer; details: 0.1m phosphate buffer, aqueous buffer

C[C@]12CC[C@@H]3c4ccc(O)cc4CC[C@H]3[C@@H]1CC[C@@H]2O [17 β-estradiol]
In vitro release of therapeutic agent ([1]; Example 10 carrier, 17 β-estradiol, 1 hour): 2.5 weight percent | In vitro release of therapeutic agent ([1]; Example 10 carrier, 17 β-estradiol, 2 hours): 4 weight percent | In vitro release of therapeutic agent ([1]; Example 10 carrier, 17 β-estradiol, 5 hours): 9.5 weight percent | In vitro release of therapeutic agent ([1]; Example 10 carrier, 17 β-estradiol, 24 hours): 46.3 weight percent | In vitro release of 17 β-estradiol ([1]; 5 hours): 9.5 weight percent | In vitro release of 17 β-estradiol ([1]; 10 hours): 15 weight percent | Order of release ([2]; Example 10 carrier, 17 β-estradiol): apparent zero order process | In vitro release of 17 β-estradiol ([2]; 15 hours): 17 weight percent | In vitro release of 17 β-estradiol ([2]; 20 hours): 19.5 weight percent

CC(C)(C)NCC(O)c1ccc(O)c(CO)c1 (stereo not drawn) [Albuterol]
Therapeutic Agent Release Parameter, T, 20% [1]: 0.58 h | Therapeutic Agent Release Parameter, T, 50% [1]: 3.16 h | Therapeutic Agent Release Parameter, T, 75% [1]: 5.67 h | Therapeutic Agent Release Parameter, T, 90% [1]: 6.83 h | Time to release 20% by weight of albuterol ([1]; Example 13 carrier (Table XV)): approximately 0.8 hr | Time to release 50% by weight of albuterol ([1]; Example 13 carrier (Table XV)): ~2.6 h | Time to release 75% by weight of albuterol ([1]; Example 13 carrier (Table XV)): ~6 h | Time to release 90% by weight of albuterol ([1]; Example 13 carrier (Table XV)): ~10.5 h | Time to release 20% by weight of albuterol ([1]; Example 14 carrier (Table XVI)): approximately 1 hr | Time to release 50% by weight of albuterol ([1]; Example 14 carrier (Table XVI)): ~3.5 h | Time to release 75% by weight of albuterol ([1]; Example 14 carrier (Table XVI)): ~8 h | Time to release 90% by weight of albuterol ([1]; Example 14 carrier (Table XVI)): ~15 h | In vitro release of albuterol ([1]; Example 15 carrier (Table XVII), 3 hours): 22 weight percent | In vitro release of albuterol ([1]; Example 15 carrier (Table XVII), 7.5 hours): 50 weight percent | In vitro release of albuterol ([1]; Example 15 carrier (Table XVII), 12 hours): 75 weight percent | In vitro release of albuterol ([1]; Example 15 carrier (Table XVII), 18 hours): 90 weight percent | In vitro release of albuterol ([1]; Example 16 carrier (Table XVIII), 2 hours): 27 weight percent | In vitro release of albuterol ([1]; Example 16 carrier (Table XVIII), 5 hours): 50 weight percent | In vitro release of albuterol ([1]; Example 16 carrier (Table XVIII), 10 hours): 73 weight percent | In vitro release of albuterol ([1]; Example 16 carrier (Table XVIII), 19 hours): 90 weight percent

CC(N)C(O)c1ccccc1 (stereo not drawn) [Phenylpropanolamine]
Therapeutic Agent Release Parameter, T, 20% [1]: 0.58 h | Therapeutic Agent Release Parameter, T, 50% [1]: 2.83 h | Therapeutic Agent Release Parameter, T, 75% [1]: 6.04 h | Therapeutic Agent Release Parameter, T, 90% [1]: 8.42 h

C[C@]12CC[C@H](O)CC1=CC[C@@H]1[C@@H]2CC[C@]2(C)C(=O)CC[C@@H]12 [dehydroepiandrosterone]
In vitro release of dehydroepiandrosterone ([1]; 6 hours): 20 weight percent | In vitro release of dehydroepiandrosterone ([1]; 10.5 hours): 30 weight percent | In vitro release of dehydroepiandrosterone ([1]; 13 hours): 40 weight percent | In vitro release of dehydroepiandrosterone ([1]; 23 hours): 50 weight percent

CN1C(C(=O)Nc2ccccn2)=C(O)c2ccccc2S1(=O)=O [piroxicam]
In vitro release of therapeutic agent ([1]; Example 9 carrier, 20 mg piroxicam, 6 hours): 24.1 weight percent | In vitro release of therapeutic agent ([1]; Example 9 carrier, 20 mg piroxicam, 23 hours): 56 weight percent | In vitro release of therapeutic agent ([1]; Example 9 carrier, 20 mg piroxicam, one hour): 5 weight percent | Order of release ([1]; Example 9 carrier, piroxicam): apparent zero order rate | solubility [3]: ~7700 µg/mL (≈ 23.2 mM) | In vitro release of therapeutic agent ([2]; Example 9 carrier, three hours): 13 weight percent | In vitro release of therapeutic agent ([2]; Example 9 carrier, two hours): 9 weight percent | Therapeutic agent remaining in the carrier ([2]; Example 9 carrier, piroxicam, after 23 hours): 36-47 weight percent
